The source made the active and inactive calls.
Assays:
[1] = molecular target: T1, Zinc finger protein mex-5 (Caenorhabditis elegans, UniProt Q9XUB2); test: potency of MEX-5 RNA-binding blockers – biochemical, C. elegans, fluorescence polarization, dose response (AID 1960)
T1 sequence (Q9XUB2 whole entry): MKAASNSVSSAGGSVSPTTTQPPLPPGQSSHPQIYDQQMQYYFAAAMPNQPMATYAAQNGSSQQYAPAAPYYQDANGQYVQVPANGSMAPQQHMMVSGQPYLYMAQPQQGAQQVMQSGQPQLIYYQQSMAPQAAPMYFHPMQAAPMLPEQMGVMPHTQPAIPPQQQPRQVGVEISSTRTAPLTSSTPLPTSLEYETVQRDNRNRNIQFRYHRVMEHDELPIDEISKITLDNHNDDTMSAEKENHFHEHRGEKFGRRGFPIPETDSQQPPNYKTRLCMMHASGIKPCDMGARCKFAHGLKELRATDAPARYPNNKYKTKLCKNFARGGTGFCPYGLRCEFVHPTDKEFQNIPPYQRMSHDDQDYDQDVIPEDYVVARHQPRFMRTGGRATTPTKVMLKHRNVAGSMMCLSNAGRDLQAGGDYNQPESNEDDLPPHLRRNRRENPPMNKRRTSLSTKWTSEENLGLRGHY

[2] = molecular target: T2, Bifunctional protein GlmU (Mycobacterium tuberculosis, UniProt P9WMN3); test: Inhibitors of Mycobacterial Glucosamine-1-phosphate acetyl transferase (GlmU). Secondary screen.; design: species or system Mycobacterium tuberculosis H37Rv
T2 sequence (P9WMN3 whole entry): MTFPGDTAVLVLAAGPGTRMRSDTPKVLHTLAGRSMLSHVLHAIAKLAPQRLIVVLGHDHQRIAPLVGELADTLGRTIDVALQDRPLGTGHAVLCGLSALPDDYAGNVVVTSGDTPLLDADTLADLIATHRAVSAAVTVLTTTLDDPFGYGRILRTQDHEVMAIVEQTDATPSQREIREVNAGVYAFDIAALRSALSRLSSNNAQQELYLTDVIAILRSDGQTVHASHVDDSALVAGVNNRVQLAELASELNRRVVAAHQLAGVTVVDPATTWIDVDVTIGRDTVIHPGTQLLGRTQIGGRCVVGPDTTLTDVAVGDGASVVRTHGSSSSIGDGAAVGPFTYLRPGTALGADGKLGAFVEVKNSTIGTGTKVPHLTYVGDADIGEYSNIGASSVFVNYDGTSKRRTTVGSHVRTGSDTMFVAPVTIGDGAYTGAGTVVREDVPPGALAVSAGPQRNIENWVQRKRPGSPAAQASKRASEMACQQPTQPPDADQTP

[3] = molecular target: T3, RNA-binding protein pos-1 (Caenorhabditis elegans, UniProt G5EF15); test: disruptors of C. elegans POS-1 RNA interaction – biochemical, fluorescence polarization, dose response (AID 1964);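 note: purified POS-1 fused to maltose binding protein made in E. coli; potency of compounds blocking POS-1 binding to fluorescent RNA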
T3 sequence (G5EF15 whole entry): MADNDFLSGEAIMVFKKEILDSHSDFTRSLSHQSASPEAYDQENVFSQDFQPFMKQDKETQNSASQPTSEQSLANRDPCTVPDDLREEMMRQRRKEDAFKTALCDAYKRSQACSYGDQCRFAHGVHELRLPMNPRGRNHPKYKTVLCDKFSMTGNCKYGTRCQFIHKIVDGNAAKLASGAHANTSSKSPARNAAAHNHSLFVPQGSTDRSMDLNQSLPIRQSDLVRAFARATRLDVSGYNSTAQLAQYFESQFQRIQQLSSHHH

[4] = molecular target: T4, Histone-lysine N-methyltransferase NSD2 (Homo sapiens, UniProt O96028); format: biochemical
T4 sequence (O96028 whole entry): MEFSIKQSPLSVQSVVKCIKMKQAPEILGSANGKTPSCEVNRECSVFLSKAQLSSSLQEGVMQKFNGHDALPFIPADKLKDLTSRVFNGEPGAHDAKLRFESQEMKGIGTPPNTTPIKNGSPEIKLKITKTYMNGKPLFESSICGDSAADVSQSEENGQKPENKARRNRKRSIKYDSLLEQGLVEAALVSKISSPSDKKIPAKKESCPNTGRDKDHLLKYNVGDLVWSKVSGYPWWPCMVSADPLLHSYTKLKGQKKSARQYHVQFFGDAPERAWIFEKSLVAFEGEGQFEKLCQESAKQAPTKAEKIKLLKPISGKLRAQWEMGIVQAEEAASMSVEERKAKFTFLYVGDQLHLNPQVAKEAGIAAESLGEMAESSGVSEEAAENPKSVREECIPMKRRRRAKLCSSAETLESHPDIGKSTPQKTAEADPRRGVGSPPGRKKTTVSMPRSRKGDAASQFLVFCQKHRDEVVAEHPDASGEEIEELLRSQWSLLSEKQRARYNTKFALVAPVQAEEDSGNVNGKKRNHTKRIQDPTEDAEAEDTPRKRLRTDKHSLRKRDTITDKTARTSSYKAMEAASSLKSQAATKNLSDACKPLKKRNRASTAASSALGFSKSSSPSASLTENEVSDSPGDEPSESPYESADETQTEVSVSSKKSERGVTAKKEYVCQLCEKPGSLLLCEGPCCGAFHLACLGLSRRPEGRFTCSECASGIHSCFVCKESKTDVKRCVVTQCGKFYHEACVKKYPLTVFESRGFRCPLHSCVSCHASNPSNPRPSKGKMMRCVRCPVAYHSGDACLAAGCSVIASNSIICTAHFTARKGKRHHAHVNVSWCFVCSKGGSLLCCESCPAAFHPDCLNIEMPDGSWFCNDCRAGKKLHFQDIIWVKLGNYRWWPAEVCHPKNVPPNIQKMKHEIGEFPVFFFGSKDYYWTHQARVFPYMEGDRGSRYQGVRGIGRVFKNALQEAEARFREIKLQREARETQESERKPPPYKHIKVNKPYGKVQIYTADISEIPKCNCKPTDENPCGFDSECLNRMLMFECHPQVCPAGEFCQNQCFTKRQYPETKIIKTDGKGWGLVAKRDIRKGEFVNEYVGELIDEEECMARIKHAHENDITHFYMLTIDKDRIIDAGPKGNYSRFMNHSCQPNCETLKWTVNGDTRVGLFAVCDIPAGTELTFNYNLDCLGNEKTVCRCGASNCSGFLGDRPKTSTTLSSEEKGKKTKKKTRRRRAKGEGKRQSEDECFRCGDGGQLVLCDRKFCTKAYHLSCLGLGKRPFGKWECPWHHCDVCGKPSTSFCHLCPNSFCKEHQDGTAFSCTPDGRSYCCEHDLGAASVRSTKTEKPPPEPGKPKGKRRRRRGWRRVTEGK

[5] = molecular target: T5, Carboxy-terminal domain RNA polymerase II polypeptide A small phosphatase 1 (Homo sapiens, UniProt Q9GZU7); test: CTDSP1 inhibitors, concentration-response, biochemical, absorbance readout, ultra-high-throughput screen actives (AID 540297); format: functional
T5 sequence (Q9GZU7 whole entry): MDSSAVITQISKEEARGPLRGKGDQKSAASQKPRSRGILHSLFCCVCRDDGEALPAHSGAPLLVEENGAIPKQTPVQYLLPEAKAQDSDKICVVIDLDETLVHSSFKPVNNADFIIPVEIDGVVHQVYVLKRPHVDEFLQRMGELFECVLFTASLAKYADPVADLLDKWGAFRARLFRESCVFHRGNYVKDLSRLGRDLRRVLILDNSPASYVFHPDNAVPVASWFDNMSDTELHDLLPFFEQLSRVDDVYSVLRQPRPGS

[6] = molecular target: Prothrombin (Homo sapiens, UniProt P00734); test: Thrombin 1536 HTS Dose Response Confirmation. [Related pubchem assays: 1046 (Thrombin 1536 HTS; hits were confirmed in this assay)]; format: functional
[7] = general mammalian cell viability loss – activator set, cherry-pick, cytotoxicity control for miR-122 modulator project, dose response (AID 720690); format: functional, cell-based;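 note: HEK293T human cells scored for general mammalian cytotoxicity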
[8] = activation of miR-122 Renilla sensor silencing – cell-based, Huh7 psiCHECK-miR122, Renilla luciferase, cherry-picked, dose response (AID 651956); format: functional;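 note: huh7 hepatoma cells stably carrying a psiCHECK-2 miR-122 sensor plasmid; renilla luciferase signal reporting endogenous miR-122 activity after 48 h compound exposure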
[9] = toxicity toward HepG2 liver cells – cell-based, plate reader, cherry-pick, antagonist series, cytotoxicity control, dose response (AID 743416); format: functional
[10] = blockers of bursicon-stimulated LGR2 cAMP reporter – cell-based, HEK293, CRE-luciferase reporter, cherry pick, set 2, dose response (AID 743343); format: functional;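 note: transfected cells were stimulated with diluted bursicon conditioned medium after compound addition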
[11] = blockade of melanocortin 4 receptor signaling – cell-based, plate reader, cherry pick, counter-screen for LGR2 antagonist project, dose response (AID 743444); format: functional;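 note: transfected HEK 293 cells stimulated with alpha-MSH peptide; potency of inhibitors of the alpha-MSH evoked signal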
[12] = A549 cell cytotoxicity, dose response, cytotoxicity control, plate reader, cherry-pick, antagonist series (AID 743412); format: functional, cell-based
[13] = OVCAR-3 cell viability loss – plate reader, dry powder samples, PAX8 inhibitor project, dose response (AID 743044); format: functional, cell-based
[14] = molecular target: Paired box protein Pax-8 (Homo sapiens, UniProt Q06710); test: PAX8 transcriptional activity inhibition in RMG-I – RMG-I cells, luciferase, cherry-pick, dose response (AID 687027); format: functional, cell-based;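 note: luciferase reporter driven by Pax8 target thyroperoxidase promoter measured by SteadyGlo luminescence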
[15] = toxicity to human hepatoma HepG2 cells – cell-based, cherry-picked samples, cytotoxicity control, dose response (AID 1159577); format: functional
[16] = P. falciparum Dd2 growth inhibitors, dose response, SYBR Green, cherry-picked samples (AID 1159567); format: functional, cell-based

Chain of Paired box protein Pax-8 (Q06710 whole entry): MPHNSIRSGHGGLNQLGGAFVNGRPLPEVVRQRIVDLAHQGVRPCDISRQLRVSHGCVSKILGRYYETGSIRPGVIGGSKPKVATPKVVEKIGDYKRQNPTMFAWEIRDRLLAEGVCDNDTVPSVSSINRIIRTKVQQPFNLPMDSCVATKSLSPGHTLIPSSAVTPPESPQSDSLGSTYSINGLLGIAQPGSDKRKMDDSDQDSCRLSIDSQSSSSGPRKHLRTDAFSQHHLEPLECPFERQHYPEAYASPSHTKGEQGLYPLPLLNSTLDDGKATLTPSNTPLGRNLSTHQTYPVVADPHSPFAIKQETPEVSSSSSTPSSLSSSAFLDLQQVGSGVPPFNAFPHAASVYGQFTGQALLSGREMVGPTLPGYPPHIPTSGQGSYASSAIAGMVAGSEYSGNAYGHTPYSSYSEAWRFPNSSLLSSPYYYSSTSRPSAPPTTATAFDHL

CC(=O)NC1=NC(=O)/C(=C/c2cc(C)n(-c3cccc(C(=O)O)c3)c2C)S1
EC50 [1]: > 300 µM (inconclusive)
IC50 [2]: 93.8 µM (active)
EC50 [3]: > 300 µM (not active)
AC50 [4]: 9.13 µM (active)
IC50 [5]: 4.31 µM (active)

CCOc1ccc(NC(=O)C(C)O)c(NS(=O)(=O)c2ccc(CCNC(C)=O)cc2)c1 (centres undefined)
IC50 [6]: > 50 µM (not active)

O=C(Nc1ccccc1)N1CCCCN2[C@@H](CO)[C@H](c3ccc(C4=CCCCC4)cc3)[C@@H]2C1
AC50 [7]: 10 µM (active)
AC50 [8]: 10 µM (active)

O=C(O)c1cccc(-c2nc3ccccc3[nH]2)c1
AC50 [9]: > 52 µM (inactive)
AC50 [10]: 1.54 µM (active)
AC50 [11]: 1.5 µM (active)
AC50 [12]: > 52 µM (inactive)

COCC(=O)N1CCCCN2[C@H](C1)[C@@H](c1ccc(-c3ccc(C)cc3)cc1)[C@@H]2CO
AC50 [13]: 56.3 µM (active)
AC50 [14]: 58.9 µM (active)

COc1ccc(S(=O)(=O)Nc2ccc3c(c2)CC(=O)N([C@@H](C)CO)C[C@@H](C)[C@H](CN(C)Cc2ccc(-c4ccccc4)cc2)O3)cc1
AC50 [7]: 17.5 µM (active)
AC50 [14]: 6.29 µM (active)

CCCC(C)C(=O)Nc1ccc(F)c(Cl)c1 (centres undefined)
IC50 [6]: > 50 µM (not active)

OC[C@@H]1[C@H](c2ccc(-c3ccc(F)cc3)cc2)[C@H](CNC2CCCC2)N1CCC(F)(F)F
AC50 [15]: 16.5 µM (active)
AC50 [16]: 2.51 µM (active)
